Test results from ChEMBL document CHEMBL1145711, “Dolabelides C and D, Cytotoxic Macrolides Isolated from the Sea Hare Dolabella auricularia” (J Nat Prod, 1997).
Values after ≈ are worked out from the molar mass of the structure shown.

Test: Cytotoxicity against human HeLaS3 cells
Type: functional, cell-based
Conditions: HeLa S3

Work on `CCC[C@H](C/C(C)=C/[C@H]1OC(=O)[C@@H](C)[C@@H](O)[C@H](C)CC[C@H](OC(C)=O)C[C@@H](OC(C)=O)C[C@@H](OC(C)=O)CC/C(C)=C/CCC[C@@H](O)C[C@H](O)[C@@H]1C)OC(C)=O` [DOLABELIDE C] yielded an IC50 of 1.9 µg/mL (≈ 2.38 µM).
Work on `CCC[C@H](C/C(C)=C/[C@H]1OC(=O)[C@@H](C)[C@@H](O)[C@H](C)CC[C@H](O)C[C@@H](OC(C)=O)C[C@@H](O)CC/C(C)=C/CCC[C@@H](O)C[C@H](O)[C@@H]1C)OC(C)=O` [DOLABELIDE D] yielded an IC50 of 1.5 µg/mL (≈ 2.1 µM).
